The values that follow come from ChEMBL document CHEMBL1201862, “PubChem BioAssay data set” (2004).

Test systems include SNB-75; RPMI-8226; HCC 2998; HOP-62; OVCAR-8; SK-MEL-28; MOLT-4; K562; OVCAR-5; HT-29; UACC-257; LOX IMVI; NCI-H460; NCI-H226; SR; RXF 393; SK-MEL-5; UACC-62; HL-60.
Holding throughout (experiment): NCI anticancer screen, dose series, 48 h

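Protocol summary: plate cells (96-well), add compound at 5 concentrations, incubate 48 h, interpolate endpoints linearly. GI50 marks 50% less growth.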 Activity calls are given as the source filed them. Rule as the data show it: active = GI50 up to about 1.1 µM and inactive = higher. Where only a bound is given, the exact number is not on record here.

Consider `Fc1nc(-c2c3ccccc3c3sc4ccccc4n23)nc(N2CCOCCOCCOCCOCC2)n1`, for which the GI50 was 2.56 µM (inactive) in the test with SNB-75; > 100 µM (inactive) in the test with RPMI-8226; > 100 µM (inactive) in the test on HCC 2998; 23.7 µM (inactive) with HOP-62; 40.2 µM (inactive) in the test on OVCAR-8; > 100 µM (inactive) in the test with SK-MEL-28. In addition, the GI50 with MOLT-4 was 66.4 µM (inactive); in the test on K562 it was > 100 µM (inactive); in the test with OVCAR-5, > 100 µM (inactive); with HT-29, 46.6 µM (inactive); with UACC-257 it was > 100 µM (inactive); in the test on LOX IMVI it was > 100 µM (inactive). Also, the GI50 in the test with NCI-H460 is > 100 µM (inactive); in the test on NCI-H226, > 100 µM (inactive); in the test with SR it was 11.2 µM (inactive); in the test on RXF 393, 18.5 µM (inactive); with SK-MEL-5, > 100 µM (inactive); with UACC-62 it was > 100 µM (inactive).

Take `O=c1[nH]cnc2c(COCCO)c[nH]c12`: the GI50 with HL-60, with SNB-75, in the test with RPMI-8226, in the test on HOP-62, with OVCAR-8 and with SK-MEL-28 was > 100 µM (inactive) in each case. Besides, the GI50 in the test with MOLT-4, in the test with K562, with OVCAR-5, in the test with HT-29, with UACC-257 and with LOX IMVI was > 100 µM (inactive) each time. In addition, the GI50 with NCI-H460, in the test with NCI-H226, in the test with SR, in the test on RXF 393, in the test with SK-MEL-5 and in the test with UACC-62 was > 100 µM (inactive) in each case.

`COc1nc(SC)nc2c1C(O)n1c(nc3ccccc31)S2` (stereo not drawn): the GI50 with HL-60 is 12.3 µM (inactive); in the test with RPMI-8226, 0.42 µM (active); in the test with HCC 2998 it was 6.79 µM (inactive); in the test on HOP-62 it was 12.1 µM (inactive); in the test on OVCAR-8 it was 14.1 µM (inactive); in the test on SK-MEL-28, 9.16 µM (inactive). For the same compound, the GI50 in the test with MOLT-4 was 4.15 µM (inactive); in the test with K562, 13.7 µM (inactive); with OVCAR-5, 82 µM (inactive); in the test with HT-29, 35.9 µM (inactive); in the test on UACC-257 it was 59.6 µM (inactive); in the test with LOX IMVI, 34.6 µM (inactive). Also, the GI50 in the test on NCI-H460 is 15 µM (inactive); with SR it was 3.58 µM (inactive); in the test on UACC-62, 0.551 µM (active).

With `CN(C)CC1CCC(CN(C)C)C1=NO` (stereo not drawn), the GI50 in the test on SNB-75 is > 10 µM (inactive); in the test with RPMI-8226, > 100 µM (inactive); in the test on HCC 2998 it was > 100 µM (inactive); in the test with HOP-62, > 100 µM (inactive); with OVCAR-8, > 100 µM (inactive); in the test on SK-MEL-28 it was > 100 µM (inactive). Also, the GI50 in the test on MOLT-4, in the test with K562, with OVCAR-5, with HT-29, in the test on UACC-257 and in the test with LOX IMVI was > 100 µM (inactive) throughout. The GI50 in the test with NCI-H460 was > 10 µM (inactive); in the test with SR, 29 µM (inactive); with RXF 393, > 100 µM (inactive); in the test with SK-MEL-5 it was > 100 µM (inactive); with UACC-62 it was > 100 µM (inactive).

`S=C(Nc1ccc(Cl)cc1)c1ccc(CN2CCCCC2)s1`: the GI50 with HL-60 is 1.81 µM (inactive); in the test with RPMI-8226 it was 3.02 µM (inactive); with HCC 2998 it was 7.16 µM (inactive); in the test with OVCAR-8, 4.22 µM (inactive); in the test with SK-MEL-28, 4.24 µM (inactive); with MOLT-4 it was 2.77 µM (inactive). The GI50 with K562 is 2.09 µM (inactive); in the test on OVCAR-5, 1.56 µM (inactive); in the test on HT-29, 3.5 µM (inactive); in the test on UACC-257, 10.6 µM (inactive); in the test with LOX IMVI it was 2.48 µM (inactive); in the test on NCI-H460 it was 4.62 µM (inactive). Also, the GI50 with SR was 2.9 µM (inactive); in the test with SK-MEL-5 it was 3.08 µM (inactive); in the test with UACC-62, 5.22 µM (inactive).
